Assay results from US20200361908A1, “CRYSTALS OF ANILINE PYRIMIDINE COMPOUND SERVING AS EGFR INHIBITOR” (CHIA TAI TIANQING PHARMACEUTICAL GROUP CO., LTD., priority 2016, published 2020).
Each block holds one molecule with its values, some of them ahead of it.

Key:
[1] = Stability test of crystal A at room temperature, kept away from light; type: physicochemical
Description: (§1) The stability of the crystal according to the present application may be detected by placing the crystal under a condition with a high temperature, a high humidity, or a lighting condition. The high temperature condition may be 40° C. to 60° C., the high humidity condition may be a relative humidity of 75% to 92.5% RH, and the lighting condition may be 5000 Lux. The crystal stability may be evaluated by investigating several parameters, such as the content of the crystal, the total content of impurities, or the water content, of a sample, and comprehensively evaluating these parameters according to the properties of the product.
The crystal A obtained by Method 1 of Example 3 was kept away from light at room temperature, and sampled for detection in months 1.5, 2, 5, and 6, respectively.

[2] = Stability test of crystal B under high temperature, high humidity or illumination; type: physicochemical
Description: as §1
The crystal B obtained by Method 5 of Example 4 was kept respectively in an environment at a high temperature of 60° C., a high humidity of 75% RH, a high humidity of 92.5% RH, or an illumination intensity of 5000 Lux, and sampled for detection on days 5, 10, and 30, respectively.

Characters ([1]; Initial Result): off-white
Content (%) ([1]; Initial Result): 100.3%
Total Impurity (%) ([1]; Initial Result): 1.11%
Characters ([1]; Month 1.5): off-white
Content (%) ([1]; Month 1.5): 100.5%
Total Impurity (%) ([1]; Month 1.5): 1.52%
Characters ([1]; Month 2): off-white
Total Impurity (%) ([1]; Month 2): 1.23%
Characters ([1]; Month 5): off-white
Content (%) ([1]; Month 5): 100%
Total Impurity (%) ([1]; Month 5): 1.5%
Characters ([1]; Month 6): off-white
Content (%) ([1]; Month 6): 99.8%
Total Impurity (%) ([1]; Month 6): 1.37%
Structure (SMILES): C=CC(=O)Nc1cc(Nc2nccc(-n3c(=O)n(C)c4ccccc43)n2)c(OC)cc1N(C)CCN(C)C [crystal A]

Characters ([2]; Day 0): white
Content (%) ([2]; Day 0): 99.3%
Total Impurity (%) ([2]; Day 0): 0.12%
Characters ([2]; High Humidity 75% RH, Day 5): white
Content (%) ([2]; High Humidity 75% RH, Day 5): 99.3%
Characters ([2]; High Humidity 75% RH, Day 10): white
Content (%) ([2]; High Humidity 75% RH, Day 10): 103.6%
Total Impurity (%) ([2]; High Humidity 75% RH, Day 10): 0.07%
Characters ([2]; High Humidity 75% RH, Day 30): off-white
Content (%) ([2]; High Humidity 75% RH, Day 30): 106.4%
Total Impurity (%) ([2]; High Humidity 75% RH, Day 30): 0.06%
Characters ([2]; High Humidity 92.5% RH, Day 5): white
Content (%) ([2]; High Humidity 92.5% RH, Day 5): 98.4%
Characters ([2]; High Humidity 92.5% RH, Day 10): white
Content (%) ([2]; High Humidity 92.5% RH, Day 10): 105.2%
Total Impurity (%) ([2]; High Humidity 92.5% RH, Day 10): 0.06%
Characters ([2]; High Humidity 92.5% RH, Day 30): off-white
Content (%) ([2]; High Humidity 92.5% RH, Day 30): 103.9%
Total Impurity (%) ([2]; High Humidity 92.5% RH, Day 30): 0.07%
Characters ([2]; High Temp. 60° C., Day 5): white
Content (%) ([2]; High Temp. 60° C., Day 5): 100.5%
Characters ([2]; High Temp. 60° C., Day 10): white
Content (%) ([2]; High Temp. 60° C., Day 10): 104.2%
Total Impurity (%) ([2]; High Temp. 60° C., Day 10): 0.09%
Characters ([2]; High Temp. 60° C., Day 30): off-white
Content (%) ([2]; High Temp. 60° C., Day 30): 107.9%
Total Impurity (%) ([2]; High Temp. 60° C., Day 30): 0.19%
Characters ([2]; Illumination 5000 Lux, Day 5): white
Content (%) ([2]; Illumination 5000 Lux, Day 5): 99.4%
Total Impurity (%) ([2]; Illumination 5000 Lux, Day 5): 0.06%
Characters ([2]; Illumination 5000 Lux, Day 10): white
Content (%) ([2]; Illumination 5000 Lux, Day 10): 106.9%
Total Impurity (%) ([2]; Illumination 5000 Lux, Day 10): 0.14%
Characters ([2]; Illumination 5000 Lux, Day 30): off-white
Content (%) ([2]; Illumination 5000 Lux, Day 30): 107.9%
Total Impurity (%) ([2]; Illumination 5000 Lux, Day 30): 0.37%
Structure (SMILES): C=CC(=O)Nc1cc(Nc2nccc(-n3c(=O)n(C)c4ccccc43)n2)c(OC)cc1N(C)CCN(C)C [crystal B]
